Assays:
HEK293 cells = assay: Assay for intracellular reactive oxygen species (DCF-DA, flow cytometry); assay type: cell-based, human; details: for fluorescence peak value derived from DCF-DA: 42° C. (5-ALA-free cells 244); for level of intracellular reactive oxygen species, increase compared with 5-ALA-free cells: 42° C. for 24 hours, in the dark; for level of intracellular reactive oxygen species (in words): 0.5-2.0 mM 5-ALA
Text: To investigate what kind of effect 5-aminolevulinic acids according to the present invention could exert on a level of intracellular reactive oxygen species during thermotherapy, human embryonic kidney-derived HEK293 cells and a DCF-DA fluorescent reagent (2′,7′-dichlorodihydrofluorescein diacetate; H2DCFDA) were used to perform an assay for measuring a level of intracellular reactive oxygen species. Note that this assay uses characteristics as follows. Cell-permeable H2DCFDA remains a non-fluorescent substance until it is oxidized in the cytoplasm of a viable cell. Once it enters the viable cell, its diacetate group is cleaved by an intracellular esterase. Then, the resulting molecule is further oxidized by reactive oxygen species to emit fluorescence. The higher the measured fluorescence level, the higher the level of intracellular reactive oxygen species. This assay was performed using the following procedure.
First, HEK293 cells were cultured at 37° C. for 24 hours in 10% fetal bovine serum (FBS)-containing Dulbecco's Modified Eagle (DME) medium. The cells were split into 8 groups. Next, the medium was replaced by an FBS-free DME medium. Then, 5-aminolevulinic acid (5-ALA) was added to each group at a final concentration of 0.5 mM, 1.0 mM, or 2.0 mM, and cultured at 37° C. for 2 hours. After that, 10% FBS was added, and the resulting HEK293 cells were incubated at 37 or 42° C. for 24 hours. In addition, 5-ALA-free HEK293 cells were likewise incubated at 37 or 42° C. for 24 hours. All the above culture processes were conducted in the dark, so that an ultraviolet light, visible light, infrared light, or radiation, etc., was never used for irradiation.
Furthermore, to each group of the HEK293 cells was added a DCF-DA fluorescent reagent (manufactured by Sigma-Aldrich Corporation) at a final concentration of 20 μM. The resulting mixture was incubated for 30 minutes. Then, fluorescence (FL1: green fluorescence) derived from the DCF-DA was measured for each group by flow cytometry (FACSCalibur, manufactured by Becton, Dickinson and Company). […] More specifically, when 0.5 mM of 5-ALA was added at an incubation temperature of 42° C., the level of intracellular reactive oxygen species was increased by 1.23 times (300/244) compared with that of the 5-ALA-free cells. When 1.0 mM of 5-ALA was added, the level of intracellular reactive oxygen species was increased by 1.34 times (326/244). When 2.0 mM of 5-ALA was added, the level of intracellular reactive oxygen species was increased by 1.42 times (346/244).

normal cell line WI-38 = assay: Measuring intracellular PpIX concentration by HPLC; assay type: cell-based, human; details: WI-38, regardless of the 5-ALA concentration added, 37 or 42° C.
Experimental: (§1) These two types of cells were cultured at 37 or 42° C. for 24 hours in a DME medium containing 10% FBS and 5-ALA at a concentration of 0, 0.5, 1, or 2 mM. Next, the cells were harvested using trypsin treatment. Then, the number of cells contained in a measurement sample was adjusted using a hemocytometer at 1×10^4. After that, the cells were lysed with NaOH, and treated with a DMF solution (i.e., a mixture of N,N-dimethylformamide:2-propanol=100:1). The resulting cell lysate was centrifuged at 13,000 rpm and 4° C. for 10 minutes to collect a supernatant. Subsequently, the supernatant was reacted at room temperature for 24 hours. Finally, the resulting supernatant was used as a measurement sample, and was subjected to a PpIX concentration measurement using HPLC.

[1] = system: transformed human embryonic kidney cell line HEK293; assay: Measuring intracellular PpIX concentration by HPLC; assay type: cell-based; details: for intracellular PpIX concentration, increase compared with 5-ALA-free cells: 42° C. for 24 hours
Experimental: as §1

[2] = system: colon cancer-derived cell line Caco-2; assay: Hyperthermia sensitivity test using trypan blue reagent; assay type: cell-based; details: for fraction of dead cells (%), increase compared with 5-ALA-free cells: 42° C.
Text: (§2) A colon cancer-derived cell line Caco-2, a human hepatoma-derived cell line HepG2, a human gastric cancer-derived cell line KatoIII, and a human cervical cancer-derived cell line HeLa were used as cancer cell lines. A human embryonic kidney cell line HEK293 was used as cells transformed so as to overgrow like cancer cells. A human normal diploid fibroblast line WI-38, a murine fibroblast-like cell line NIH3T3, and a human embryonic lung-derived normal fibroblast MRCS were used as normal cells. Each of these cells was cultured at 37 or 42° C. for 24 hours in a DME medium containing 10% FBS and 5-ALA at a concentration of 0, 0.5, 1, or 2 mM, and treated with trypsin for cell harvest. Then, equal volumes of the harvested cell-containing solution and a trypan blue reagent were mixed, and the number of the cells was counted with a hemocytometer to calculate the fraction of dead cells (cells stained with trypan blue) (%; percent cell death).

[3] = system: human embryonic kidney cell line HEK293; assay: as above; assay type: cell-based; details: for fraction of dead cells (%), increase compared with 5-ALA-free cells: 42° C.
Text: as §2

[4] = system: human hepatoma-derived cell line HepG2; assay: as above; assay type: cell-based; details: for fraction of dead cells (%), increase compared with 5-ALA-free cells: 42° C.
Text: as §2

[5] = system: human normal diploid fibroblast line WI-38; assay: as above; assay type: cell-based; details: normal cells WI-38, 42° C.
Text: as §2

[6] = system: murine fibroblast-like cell line NIH3T3; assay: as above; assay type: cell-based; details: normal cells NIH3T3, 42° C.
Text: as §2

[7] = system: human embryonic lung-derived normal fibroblast MRCS; assay: as above; assay type: cell-based; details: 42° C.
Text: as §2

[8] = system: human cervical cancer-derived cell line HeLa; assay: as above; assay type: cell-based
Text: as §2

[9] = system: human gastric cancer-derived cell line KatoIII; assay: as above; assay type: cell-based
Text: as §2

[10] = system: colon cancer-derived cell line Caco-2; assay: Hyperthermia sensitivity test using flow cytometry; assay type: cell-based; details: for fraction of dead cells (%), increase compared with 5-ALA-free cells: 42° C.
Experimental: (§3) To investigate what kind of effect the addition of 5-ALA could exert on hyperthermia sensitivity of cancer cells, a hyperthermia sensitivity test was performed using a flow cytometry technique as follows.
(§4) First, a human fibrosarcoma cell line HT-1080 and a colon cancer-derived cell line Caco-2 were prepared as cancer cell lines, and a human fibroblast line WI-38 and a murine fibroblast line NIH3T3 were prepared as normal cell lines. Also, prepared was a human embryonic kidney cell line HEK293 transformed so as to overgrow like cancer cells. These cells were cultured at 37° C. for 24 hours in 10% FBS-containing DME medium, and split into 8 groups. Next, the medium was replaced by an FBS-free DME medium. Then, 5-aminolevulinic acid (5-ALA) was added to each group at a final concentration of 0.5 mM, 1.0 mM, or 2.0 mM, and cultured at 37° C. for 2 hours. After that, 10% FBS was added, and the resulting cell groups were incubated […] for 24 hours. In addition, 5-ALA-free cell groups were likewise incubated at 37 or 42° C. for 24 hours. All the above culture processes were conducted in the dark, so that an ultraviolet light, visible light, infrared light, or radiation, etc., was never used for irradiation.
(§5) With regard to the fraction of dead cells, a total number of cells having apoptosis and necrosis was counted, and a ratio of the total number to the number of all cells was calculated. […] Of note is little enhancement of the cell death-inducing effect in normal cells.

[11] = system: human embryonic kidney cell line HEK293 transformed so as to overgrow like cancer cells; assay: Hyperthermia sensitivity test using flow cytometry; assay type: cell-based; details: for fraction of dead cells (%), increase compared with 5-ALA-free cells: 42° C.
Experimental: as §3, §4, §5

[12] = system: human fibrosarcoma cell line HT-1080; assay: Hyperthermia sensitivity test using flow cytometry; assay type: cell-based; details: for fraction of dead cells (%), increase compared with 5-ALA-free cells: 42° C.
Experimental: as §3, §4, §5

[13] = system: human fibroblast line WI-38; assay: Hyperthermia sensitivity test using flow cytometry; assay type: cell-based; details: normal cells WI-38, 42° C.
Experimental: as §3, §4, §5

[14] = system: murine fibroblast line NIH3T3; assay: Hyperthermia sensitivity test using flow cytometry; assay type: cell-based; details: normal cells NIH3T3, 42° C.
Experimental: as §3, §4, §5

[15] = 37° C., each concentration of 5-ALA

SMILES: NCC(=O)CCC(=O)O [5-ALA, 5-aminolevulinic acid]
- fluorescence peak value derived from DCF-DA (HEK293 cells; 0.5 mM 5-ALA): 300
- level of intracellular reactive oxygen species, increase compared with 5-ALA-free cells (HEK293 cells; 0.5 mM 5-ALA): 1.23 times
- fluorescence peak value derived from DCF-DA (HEK293 cells; 1.0 mM 5-ALA): 326
- level of intracellular reactive oxygen species, increase compared with 5-ALA-free cells (HEK293 cells; 1.0 mM 5-ALA): 1.34 times
- fluorescence peak value derived from DCF-DA (HEK293 cells; 2.0 mM 5-ALA): 346
- level of intracellular reactive oxygen species, increase compared with 5-ALA-free cells (HEK293 cells; 2.0 mM 5-ALA): 1.42 times
- level of intracellular reactive oxygen species (in words) (HEK293 cells; incubation temperature 37° C.): somewhat increased
- level of intracellular reactive oxygen species (in words) (HEK293 cells; incubation temperature 42° C.): markedly increased
- intracellular PpIX concentration (in words) (normal cell line WI-38): detection limit or less
- intracellular PpIX concentration, increase compared with 5-ALA-free cells ([1]; HEK293, 0.5 mM 5-ALA): about 2.75 times
- intracellular PpIX concentration, increase compared with 5-ALA-free cells ([1]; HEK293, 1.0 mM 5-ALA): about 6.3 times
- intracellular PpIX concentration, increase compared with 5-ALA-free cells ([1]; HEK293, 2.0 mM 5-ALA): about 5.9 times
- PpIX concentration in the HEK293 cell line (in words) ([1]; culture conditions at 42° C.): increased depending on the 5-ALA concentration
- fraction of dead cells (%), increase compared with 5-ALA-free cells ([2]; Caco-2, 0.5 mM 5-ALA): about 1.2 times
- fraction of dead cells (%), increase compared with 5-ALA-free cells ([2]; Caco-2, 1.0 mM 5-ALA): about 1.7 times
- fraction of dead cells (%), increase compared with 5-ALA-free cells ([2]; Caco-2, 2.0 mM 5-ALA): about 1.6 times
- fraction of dead cells (in words) ([2]; Caco-2, 37° C., each concentration of 5-ALA): did not increase
- fraction of dead cells (in words) ([2]; Caco-2, 42° C.): markedly increased depending on the 5-ALA concentration
- fraction of dead cells (%), increase compared with 5-ALA-free cells ([3]; HEK293, 0.5 mM 5-ALA): about 1.6 times
- fraction of dead cells (%), increase compared with 5-ALA-free cells ([3]; HEK293, 1.0 mM 5-ALA): about 2.0 times
- fraction of dead cells (%), increase compared with 5-ALA-free cells ([3]; HEK293, 2.0 mM 5-ALA): about 3.5 times
- fraction of dead cells (in words) ([3]; HEK293, 37° C., each concentration of 5-ALA): did not increase
- fraction of dead cells (in words) ([3]; HEK293, 42° C.): markedly increased depending on the 5-ALA concentration
- fraction of dead cells (%), increase compared with 5-ALA-free cells ([4]; HepG2, 0.5 mM 5-ALA): about 1.1 times
- fraction of dead cells (%), increase compared with 5-ALA-free cells ([4]; HepG2, 1.0 mM 5-ALA): about 1.35 times
- fraction of dead cells (%), increase compared with 5-ALA-free cells ([4]; HepG2, 2.0 mM 5-ALA): about 1.5 times
- fraction of dead cells (in words) ([4]; HepG2, 37° C., each concentration of 5-ALA): did not increase
- fraction of dead cells (in words) ([4]; HepG2, 42° C.): markedly increased depending on the 5-ALA concentration
- increase in the fraction of dead cells depending on the 5-ALA concentration (in words) [5]: no increase
- increase in the fraction of dead cells depending on the 5-ALA concentration (in words) [6]: no increase
- increase in the fraction of dead cells depending on the 5-ALA concentration (in words) [7]: no increase
- fraction of dead cells (%), increase compared with 5-ALA-free cells ([8]; 0.5 mM 5-ALA, 42° C.): about 1.4 times
- fraction of dead cells (%), increase compared with 5-ALA-free cells ([8]; 1.0 mM 5-ALA, 42° C.): about 1.5 times
- fraction of dead cells (%), increase compared with 5-ALA-free cells ([8]; 2.0 mM 5-ALA, 42° C.): about 1.6 times
- fraction of dead cells (in words) [8, 15]: did not increase
- fraction of dead cells (in words) ([8]; 42° C.): markedly increased depending on the 5-ALA concentration
- fraction of dead cells (%), increase compared with 5-ALA-free cells ([9]; 0.5 mM 5-ALA, 42° C.): about 1.8 times
- fraction of dead cells (%), increase compared with 5-ALA-free cells ([9]; 1.0 mM 5-ALA, 42° C.): about 1.8 times
- fraction of dead cells (%), increase compared with 5-ALA-free cells ([9]; 2.0 mM 5-ALA, 42° C.): about 1.8 times
- fraction of dead cells (in words) [9, 15]: did not increase
- fraction of dead cells (in words) ([9]; 42° C.): markedly increased depending on the 5-ALA concentration
- fraction of dead cells (%), increase compared with 5-ALA-free cells ([10]; Caco-2, 0.5 mM 5-ALA): about 2.1 times
- fraction of dead cells (%), increase compared with 5-ALA-free cells ([10]; Caco-2, 1.0 mM 5-ALA): about 2.0 times
- fraction of dead cells (%), increase compared with 5-ALA-free cells ([10]; Caco-2, 2.0 mM 5-ALA): about 1.9 times
- fraction of dead cells (in words) ([10]; Caco-2, 37° C.): somewhat increased
- fraction of dead cells (in words) ([10]; Caco-2, 42° C.): increase markedly
- fraction of dead cells (%), increase compared with 5-ALA-free cells ([11]; HEK293, 0.5 mM 5-ALA): about 3.2 times
- fraction of dead cells (%), increase compared with 5-ALA-free cells ([11]; HEK293, 1.0 mM 5-ALA): about 4.8 times
- fraction of dead cells (%), increase compared with 5-ALA-free cells ([11]; HEK293, 2.0 mM 5-ALA): about 6.0 times
- fraction of dead cells (in words) ([11]; HEK293, 37° C.): somewhat increased
- fraction of dead cells (in words) ([11]; HEK293, 42° C.): increase markedly
- fraction of dead cells (%), increase compared with 5-ALA-free cells ([12]; HT-1080, 0.5 mM 5-ALA): about 1.7 times
- fraction of dead cells (%), increase compared with 5-ALA-free cells ([12]; HT-1080, 1.0 mM 5-ALA): about 1.5 times
- fraction of dead cells (%), increase compared with 5-ALA-free cells ([12]; HT-1080, 2.0 mM 5-ALA): about 2.3 times
- fraction of dead cells (in words) ([12]; HT-1080, 37° C.): somewhat increased
- fraction of dead cells (in words) ([12]; HT-1080, 42° C.): increase markedly
- 5-ALA concentration-dependent cell death (in words) [13]: not enhanced
- 5-ALA concentration-dependent cell death (in words) [14]: not enhanced
